# Patent publication US11725000B2, “Apoptosis inhibitors” (National Institute of Biological Sciences, Beijing, priority 2017, dated 2023)
# Tested on: U2OS_Bim cells
# Assay: Apoptosis inhibition assay (Bim-induced apoptosis, cell viability by ATP level)
# Format: cell-based
# Conditions: U2OS_Bim cells; estimated (*Est.) / preliminary results; numbering of Tables 4a/4b; read-out: EC50
# How it was run: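 Apoptosis was triggered by doxycycline (0.1 μg/mL) induction of Bim, one hour after compound addition to U2OS_Bim cells. Survival was measured after 24 h from cellular ATP (CellTiter-Glo), relative to DMSO, with zVAD at 20 μM as rescue control. Data are duplicate means, some estimated from preliminary results.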
row,Structure (SMILES),EC50 [nM]
1,"Cc1cc(-c2cc(F)c(=O)n(Cc3ccc4nnn(C)c4c3)c2)nc(S(=O)(=O)CCCn2cnc3ccccc32)n1 [Compound 337, 5-(2-((3-(1H-benzo[d]imidazol-1-yl)propyl)sulfonyl)-6-methylpyrimidin-4-yl)-3-fluoro-1-((1-methyl-1H-benzo[d][1,2,3]triazol-6-yl)methyl)pyridin-2 (1H)-one]",1 to 1000
2,Cc1cc(-c2cc(F)c(=O)n(Cc3cccc(N(C)C)c3)c2)nc(S(=O)(=O)CCC(OCc2ccccc2F)c2ccccc2)n1 (stereo not shown) [Compound 339],1 to 1000
3,Cc1cc(-c2cc(F)c(=O)n(Cc3ccn4ccnc4c3)c2)nc(S(=O)(=O)CCC(OCc2ccccc2F)c2ccccc2)n1 (stereo not shown) [Compound 340],1 to 1000
4,Cc1cc(-c2cc(F)c(=O)n(Cc3ccc4[nH]c(=O)[nH]c4c3)c2)nc(S(=O)(=O)CCC(OCc2ccccc2F)c2ccccc2)n1 (stereo not shown) [Compound 341],1 to 1000
5,Cc1cc(-c2cc(F)c(=O)n(Cc3ccc4c(c3)n(C)c(=O)n4C)c2)nc(S(=O)(=O)CCC(OCc2ccccc2F)c2ccccc2)n1 (stereo not shown) [Compound 342],1 to 1000
6,Cc1cc(-c2cc(F)c(=O)n(Cc3ccc4c(c3)NC(=O)CO4)c2)nc(S(=O)(=O)CCC(OCc2ccccc2F)c2ccccc2)n1 (stereo not shown) [Compound 344],1 to 1000
7,Cc1cc(-c2cc(F)c(=O)n(Cc3ccc4c(c3)NCCN4)c2)nc(S(=O)(=O)CCC(OCc2ccccc2F)c2ccccc2)n1 (stereo not shown) [Compound 346],1 to 1000

# Results, then the compound that gave them:
row,EC50 [nM],Structure (SMILES)
1,1 to 1000,"Cc1cc(-c2cc(F)c(=O)n(Cc3ccc4c(c3)OCO4)c2)nc(S(=O)(=O)CCCn2cnc3ccccc32)n1 [Compound 338, 5-(2-((3-(1H-benzo[d]imidazol-1-yl)propyl)sulfonyl)-6-methylpyrimidin-4-yl)-1-(benzo[d][1,3]dioxol-5-ylmethyl)-3-fluoropyridin-2 (1H)-one]"
2,1 to 1000,Cc1cc(-c2cc(F)c(=O)n(Cc3ccc4cn(C)nc4c3)c2)nc(S(=O)(=O)CCC(OCc2ccccc2F)c2ccccc2)n1 (stereo not shown) [Compound 343]
3,1 to 1000,Cc1cc(-c2cc(F)c(=O)n(Cc3ccc4[nH]c(=O)c(=O)[nH]c4c3)c2)nc(S(=O)(=O)CCC(OCc2ccccc2F)c2ccccc2)n1 (stereo not shown) [Compound 345]

# Same assay, conditions: U2OS_Bim cells; means of duplicates; numbering of Tables 4a/4b; read-out: EC50
row,Structure (SMILES),EC50 [nM]
1,"COc1ccc(Cn2cc(-c3cc(C)nc(S(C)(=O)=O)n3)cc(F)c2=O)cc1OC [Compound 324, 1-(3,4-dimethoxybenzyl)-3-fluoro-5-(6-methyl-2-(methylsulfonyl)pyrimidin-4-yl)pyridin-2 (1H)-one]",1000 to 10000
2,"Cc1cc(-c2cc(F)c(=O)n(Cc3ccc4scnc4c3)c2)nc(S(=O)(=O)CCC(OCc2ccccc2F)c2ccccc2)n1 (stereo not shown) [Compound 326, 1-(benzo[d]thiazol-5-ylmethyl)-3-fluoro-5-(2-(3-(2-fluorobenzyloxy)-3-phenylpropylsulfonyl)-6-methylpyrimidin-4-yl)pyridin-2 (1H)-one]",1 to 1000
3,"Cc1cc(-c2cc(F)c(=O)n(Cc3ccc4c(cnn4C)c3)c2)nc(S(=O)(=O)CCC(OCc2ccccc2F)c2ccccc2)n1 (stereo not shown) [Compound 327, 3-fluoro-5-(2-(3-(2-fluorobenzyloxy)-3-phenylpropylsulfonyl)-6-methylpyrimidin-4-yl)-1-((1-methyl-1H-indazol-5-yl)methyl)pyridin-2 (1H)-one]",1 to 1000
4,"Cc1cc(-c2cc(F)c(=O)n(Cc3ccc4c(c3)OCCO4)c2)nc(S(=O)(=O)CCC(OCc2ccccc2F)c2ccccc2)n1 (stereo not shown) [Compound 331, 1-((2,3-dihydrobenzo[b][1,4]dioxin-6-yl)methyl)-3-fluoro-5-(2-(3-(2-fluorobenzyloxy)-3-phenylpropylsulfonyl)-6-methylpyrimidin-4-yl)pyridin-2 (1H)-one]",1 to 1000
5,"C#CCOc1cc(Cn2cc(-c3cc(C)nc(S(=O)(=O)CCC(OCc4ccccc4F)c4ccccc4)n3)cc(F)c2=O)ccc1OC (stereo not shown) [Compound 332, 3-fluoro-5-(2-((3-((2-fluorobenzyl)oxy)-3-phenylpropyl)sulfonyl)-6-methylpyrimidin-4-yl)-1-(4-methoxy-3-(prop-2-yn-1-yloxy)benzyl)pyridin-2 (1H)-one]",1 to 1000

# Further lines, results first:
row,EC50 [nM],Structure (SMILES)
1,1 to 1000,"Cc1cc(-c2cc(F)c(=O)n(Cc3cccc4c3OCO4)c2)nc(S(=O)(=O)CCC(OCc2ccccc2F)c2ccccc2)n1 (stereo not shown) [Compound 320, 1-(benzo[d][1,3]dioxol-4-ylmethyl)-3-fluoro-5-(2-(3-(2-fluorobenzyloxy)-3-phenylpropylsulfonyl)-6-methylpyrimidin-4-yl)pyridin-2 (1H)-one]"
2,1 to 1000,"COc1cc(Cn2cc(-c3cc(C)nc(S(=O)(=O)CCC(OCc4ccccc4F)c4ccccc4)n3)cc(F)c2=O)ccn1 (stereo not shown) [Compound 321, 3-fluoro-5-(2-(3-(2-fluorobenzyloxy)-3-phenylpropylsulfonyl)-6-methylpyrimidin-4-yl)-1-((2-methoxypyridin-4-yl)methyl)pyridin-2 (1H)-one]"
3,1 to 1000,"Cc1cc(-c2cc(F)c(=O)n(Cc3ccc4nc[nH]c4c3)c2)nc(S(=O)(=O)CCC(OCc2ccccc2F)c2ccccc2)n1 (stereo not shown) [Compound 322, 1-((1H-benzo[d]imidazol-6-yl)methyl)-3-fluoro-5-(2-(3-(2-fluorobenzyloxy)-3-phenylpropylsulfonyl)-6-methylpyrimidin-4-yl)pyridin-2 (1H)-one]"
4,1 to 1000,Cc1cc(-c2cc(F)c(=O)n(Cc3ccc4c(c3)no[n+]4[O-])c2)nc(S(=O)(=O)CCC(OCc2ccccc2F)c2ccccc2)n1 (stereo not shown) [Compound 323]
5,1000 to 10000,"Cc1cc(-c2c[nH]c(=O)c(F)c2)nc(S(=O)(=O)CCC(OCc2ccccc2F)c2ccccc2)n1 (stereo not shown) [Compound 325, 3-fluoro-5-(2-(3-(2-fluorobenzyloxy)-3-phenylpropylsulfonyl)-6-methylpyrimidin-4-yl)pyridin-2 (1H)-one]"
6,< 100000,"Cc1cc(-c2cnc(OCc3ccc4c(cnn4C)c3)c(F)c2)nc(S(=O)(=O)CCC(OCc2ccccc2F)c2ccccc2)n1 (stereo not shown) [Compound 328, 5-((3-fluoro-5-(2-(3-(2-fluorobenzyloxy)-3-phenylpropylsulfonyl)-6-methylpyrimidin-4-yl)pyridin-2-yloxy)methyl)-1-methyl-1H-indazole]"
7,1 to 1000,"Cc1cc(-c2cc(F)c(=O)n(Cc3ccc4ocnc4c3)c2)nc(S(=O)(=O)CCC(OCc2ccccc2F)c2ccccc2)n1 (stereo not shown) [Compound 329, 1-(benzo[d]oxazol-5-ylmethyl)-3-fluoro-5-(2-((3-((2-fluorobenzyl)oxy)-3-phenylpropyl)sulfonyl)-6-methylpyrimidin-4-yl)pyridin-2 (1H)-one]"
8,1 to 1000,"Cc1cc(-c2cc(F)c(=O)n(Cc3ccc4c(c3)OCO4)c2)nc(S(=O)(=O)CCC(Oc2cccnc2)c2ccccc2)n1 (stereo not shown) [Compound 333, 1-(benzo[d][1,3]dioxol-5-ylmethyl)-3-fluoro-5-(6-methyl-2-((3-phenyl-3-(pyridin-3-yloxy)propyl)sulfonyl)pyrimidin-4-yl)pyridin-2 (1H)-one]"
9,1000 to 10000,"CS(=O)(=O)c1nc(CF)cc(-c2cc(F)c(=O)n(Cc3ccc4c(c3)OCO4)c2)n1 [Compound 334, 1-(benzo[d][1,3]dioxol-5-ylmethyl)-3-fluoro-5-(6-(fluoromethyl)-2-(methylsulfonyl)pyrimidin-4-yl)pyridin-2 (1H)-one]"
10,1 to 1000,"O=c1c(F)cc(-c2cc(CF)nc(S(=O)(=O)CCC(OCc3ccccc3F)c3ccccc3)n2)cn1Cc1ccc2c(c1)OCO2 (stereo not shown) [Compound 335, 1-(benzo[d][1,3]dioxol-5-ylmethyl)-3-fluoro-5-(2-((3-((2-fluorobenzyl)oxy)-3-phenylpropyl)sulfonyl)-6-(fluoromethyl)pyrimidin-4-yl)pyridin-2 (1H)-one]"
